Measurements taken from US6825230B2, “Spiro and dispiro 1,2,4-trixolane antimalarials” (Medicines for Malaria Venture MMV, priority 2002, dated 2004).
In brackets after ≈: the same amount, converted by molar mass.

Key:
[1] = test system: chloroquine-resistant K1 strain of P. falciparum; test: In vitro antimalarial semiautomated microdilution assay ([3H]-hypoxanthine incorporation), K1 strain; type: cell-based, Plasmodium falciparum; conditions: Plasmodium falciparum, K1, 72 h, read-out: IC50 (ng/ml) K1, chloroquine-resistant K1 strain, 72 h incubation
Experimental: (§1) Various OZ compounds were tested by the semiautomated microdilution assay against intraerythrocytic forms of Plasmodium falciparum derived from asynchronous stock cultures.
(§2) Fifty percent inhibitory concentration (IC50) were estimated by Logit regression analysis.

[2] = test system: chloroquine-sensitive NF54 strain of P. falciparum; test: In vitro antimalarial semiautomated microdilution assay ([3H]-hypoxanthine incorporation), NF54 strain; type: cell-based, Plasmodium falciparum; conditions: Plasmodium falciparum, NF54, 72 h, read-out: IC50 (ng/ml) NF54, chloroquine-sensitive NF54 strain, 72 h incubation
Experimental: as §1, §2

[3] = test system: ANKA strain of P. berghei; test: Single dose STI in vivo screen in infected mice; parameters: species or system Plasmodium berghei; conditions: for Survival (days) 10 mg/kg po: single 10 mg/kg po in 3% ethanol and 7% Tween 80; for Survival (days) 10 mg/kg po / Survival (days) 10 mg/kg SSV po / Survival (days) 10 mg/kg sc: untreated 6-7 days; for Activity (%) 10 mg/kg po: single 10 mg/kg po in 3% ethanol and 7% Tween 80 on day 1 post-infection; for Activity (%) 10 mg/kg po / Activity (%) 10 mg/kg SSV po / Activity (%) 10 mg/kg sc: percent reduction in parasitemia on day 3; for Survival (days) 10 mg/kg SSV po: single 10 mg/kg po in SSV; for Activity (%) 10 mg/kg SSV po: single 10 mg/kg po in standard suspending vehicle (SSV) on day 1 post-infection; for Survival (days) 10 mg/kg sc: single 10 mg/kg sc in 3% ethanol and 7% Tween 80; for Activity (%) 10 mg/kg sc: single 10 mg/kg sc in 3% ethanol and 7% Tween 80 on day 1 post-infection

SMILES	IC50 [1] [ng/mL]	IC50 [2] [ng/mL]	Survival (days) 10 mg/kg po [3]	Activity (%) 10 mg/kg po [3]	Survival (days) 10 mg/kg SSV po [3]	Activity (%) 10 mg/kg SSV po [3]	Survival (days) 10 mg/kg sc [3]	Activity (%) 10 mg/kg sc [3]
CCCCS(=O)(=O)N1CCC2(CC1)OOC1(O2)C2CC3CC(C2)CC1C3 (stereo not drawn) [OZ92, Adamantane-2-spiro-3′-8′-(1′-butanesulfonyl)-1′,2′,4′-trioxa-8′-azaspiro[4.5]decane]	1.6 (≈ 4.15 nM)	0.4 (≈ 1.04 nM)	6.7 days	81%	6.3 days	35%	10.0 days	99.98%
O=C(CN1C(=O)c2ccccc2C1=O)N1CCC2(CC1)OOC1(O2)C2CC3CC(C2)CC1C3 (stereo not drawn) [OZ93, Adamantane-2-spiro-3′-8′-(phthalimidoacetyl)-1′,2′,4′-trioxa-8′-azaspiro[4.5]decane]	3.3 (≈ 7.29 nM)	0.92 (≈ 2.03 nM)	6.7 days	57%	6.0 days	3%	13.3 days	100%
c1ccc2c(c1)-c1ccccc1C21OOC2(O1)C1CC3CC(C1)CC2C3 (stereo not drawn) [OZ94, Adamantane-2-spiro-3′-1′,2′,4′-trioxolane-5′-spiro-9″-fluorene]	57 (≈ 165 nM)	28 (≈ 80.8 nM)	6.0 days	21%	5.7 days	0%	5.3 days	11%
O=[N+]([O-])c1ccc(C2(c3ccccc3)OOC3(O2)C2CC4CC(C2)CC3C4)cc1 (stereo not drawn) [OZ95, Adamantane-2-spiro-3′-5′-(4′-nitrophenyl)-5′-phenyl-1′,2′,4′-trioxolane]	2.8 (≈ 7.12 nM)	1.3 (≈ 3.3 nM)	6.0/6.0/6.0 days	31%	6.0/6.0/6.0 days	0%	6.0/6.0/6.0 days	49%
O=[N+]([O-])c1cc(C2(c3ccc(Cl)c([N+](=O)[O-])c3)OOC3(O2)C2CC4CC(C2)CC3C4)ccc1Cl (stereo not drawn) [OZ96, Adamantane-2-spiro-3′-5′,5′-bis(4′-chloro-3′-nitrophenyl)-1′,2′,4′-trioxolane]	8.4 (≈ 16.6 nM)	> 10	5.7 days	12%	5.7 days	14%	5.3 days	19%
O=C1c2ccccc2C(=O)N1CC1(c2ccccc2)CCC2(CC1)OOC1(O2)C2CC3CC(C2)CC1C3 (stereo not drawn) [OZ97]	2.2 (≈ 4.4 nM)	1.8 (≈ 3.6 nM)	6.7 days	59%	5.3 days	2%	7.0 days	66%
COC(=O)C1(c2ccccc2)CCC2(CC1)OOC1(O2)C2CC3CC(C2)CC1C3 (stereo not drawn) [OZ98]	2.3 (≈ 5.77 nM)	0.9 (≈ 2.26 nM)	6.3 days	72%	5.3 days	11%	7.3 days	77%
O=C(O)C1(c2ccccc2)CCC2(CC1)OOC1(O2)C2CC3CC(C2)CC1C3 (stereo not drawn) [OZ99]	77 (≈ 200 nM)	27 (≈ 70.2 nM)	6.3 days	30%	5.7 days	40%	6.3 days	36%
CC(=O)Nc1ccc(S(=O)(=O)N2CCC3(CC2)OOC2(O3)C3CC4CC(C3)CC2C4)cc1 (stereo not drawn) [OZ104, Adamantane-2-spiro-3′-8′-[[4-(acetylamino)phenyl]sulfonyl]-1′,2′,4′-trioxa-8′-azaspiro[4.5]decane]	1.4 (≈ 3.03 nM)	0.5 (≈ 1.08 nM)	6.3 days	56%	5.7 days	0%	12.0 days	99.98%
COC(=O)c1ccc(C2(c3ccc(C(=O)OC)c(C(=O)OC)c3)OOC3(O2)C2CC4CC(C2)CC3C4)cc1C(=O)OC (stereo not drawn) [OZ106, Adamantane-2-spiro-3′-5′,5′-bis[3′,4′-di(methoxycarbonyl)phenyl]-1′,2′,4′-trioxolane]	2.2 (≈ 3.79 nM)	1.7 (≈ 2.93 nM)	5.3 days	0/0/0%	5.0 days	0/0/0%	5.3 days	0/0/0%
O=C(O)c1nccnc1C(=O)N1CCC2(CC1)OOC1(O2)C2CC3CC(C2)CC1C3 (stereo not drawn) [OZ109, Adamantane-2-spiro-3′-8′-[(3′-carboxypyrazinyl)carbonyl]-1′,2′,4′-trioxa-8′-azaspiro[4.5]decane]	21 (≈ 50.5 nM)	24 (≈ 57.8 nM)	5.7 days	2%	5.7 days	0%	6.3 days	24%
CCOC(=O)N1C2CCC1CC1(C2)OOC2(O1)C1CC3CC(C1)CC2C3 (stereo not drawn) [OZ110, Adamantane-2-spiro-3′-1′,2′,4′-trioxolane-5′-spiro-3″-8″-ethoxycarbonyl-8″-azabicyclo[3.2.1]octane]	5.3 (≈ 14.6 nM)	2.1 (≈ 5.78 nM)	6.7 days	50%	5.3 days	0%	7.7 days	97.97%
O=C(O)COCC(=O)N1CCC2(CC1)OOC1(O2)C2CC3CC(C2)CC1C3 (stereo not drawn) [OZ112, Adamantane-2-spiro-3′-8′-[(carboxymethoxy)acetyl]-1′,2′,4′-trioxa-8′-azaspiro[4.5]decane]	> 10	> 10	5.7 days	6%	5.7 days	0%	6.3 days	36%
O=S(=O)(c1cccc2cccnc12)N1CCC2(CC1)OOC1(O2)C2CC3CC(C2)CC1C3 (stereo not drawn) [OZ114, Adamantane-2-spiro-3′-8′-(8′-quinolinesulfonyl)-1′,2′,4′-trioxa-8′-azaspiro[4.5]decane]	3.7 (≈ 8.1 nM)	2.2 (≈ 4.82 nM)	5.7 days	0%	6.0 days	0%	8.7 days	99.64%
CCCCCCCCS(=O)(=O)N1CCC2(CC1)OOC1(O2)C2CC3CC(C2)CC1C3 (stereo not drawn) [OZ115, Adamantane-2-spiro-3′-8′-(1′-octanesulfonyl)-1′,2′,4′-trioxa-8′-azaspiro[4.5]decane]	11 (≈ 24.9 nM)	6.9 (≈ 15.6 nM)	6.3 days	33%	5.7 days	0%	7.3 days	97%
